Data set [1] relates to KPC cells, a murine PDAC cell line. As to the kind of experiment: Orthotopic KPC pancreatic cancer model in mice, dapansutrile and gemcitabine combination (Example 2). The format is in vivo, C57BL/6 male mice. The settings on record: sacrifice after 21 days; gemcitabine 100 mg/kg i.p. every three days from day 10; dapansutrile diet; vs PBS vehicle (combination also vs monotherapies). The procedure: Tumor-bearing mice were prepared according to Example 1 and monitored daily until the sacrifice after 21 days.
Mice treated with dapansutrile were fed with dapansutrile by the same protocol as described in Example 1.
Control mice received PBS
At sacrifice, tumor volume and tumor weight were assessed in the 4 groups of mice.

For data set [2] the test system is unchanged. As to the kind of experiment: Orthotopic KPC pancreatic cancer model in mice, dapansutrile diet (Example 1). The format is in vivo, C57BL/6 male mice. The settings on record: dapansutrile diet 7.5 g/kg food ad libitum from surgery, sacrifice after 21 days, vs standard diet. On the procedure: C57BL/6 male mice (8 weeks old) were purchased from Jackson Laboratories (Bar Harbor, ME). Mice were anesthetized and following opening the abdominal cavity, the tip of pancreatic tail was gently grasped, and the pancreas/spleen was externalized in a lateral direction, exposing the entire pancreatic body and spleen. 100,000 KPC cells, a murine PDAC cell line, were mixed 1:1 with Matrigel (VF=20 μl) and injected into the tail of the pancreas. The pancreas was then gently internalized with blunt forceps and the abdominal muscle layer, and the skin was closed separately with absorbable sutures.
Following the initial injections of KPC cells, tumor bearing mice were monitored daily until the sacrifice after 21 days. At sacrifice, tumor volume and weight were assessed in the vehicle (n=16) and OLT1177® (dapansutrile)-treated mice (n=16).
From the date of surgery, mice were treated with oral dapansutrile via feed pellets ad libitum. The composition of the food is the standard mouse chow enriched with 7.5 gr of dapansutrile per kilogram of food. […]
At sacrifice, tumor volume in different groups was calculated using the modified ellipsoidal formula V=(LW^2)/2, where L is the length of the longest tumor dimension parallel to the skin containing the tumor midpoint, W is the length of the tumor dimension perpendicular to L and parallel to the skin, and V is tumor volume in cubic millimeters (mm^3).

The test system of the next data set is non-immune cells. As to the kind of experiment: Effect of dapansutrile on non-immune cell proliferation.
Another data set deals with COX2/PGE2. Briefly: Effect of dapansutrile on COX2/PGE2. The settings on record: immunosuppressive pathway in PDAC.
In another data set the target is NLRP3 inflammasome (Homo sapiens, UniProt Q96P20). The settings on record: cited from earlier work.
Sequence of NLRP3 inflammasome (Q96P20 whole entry): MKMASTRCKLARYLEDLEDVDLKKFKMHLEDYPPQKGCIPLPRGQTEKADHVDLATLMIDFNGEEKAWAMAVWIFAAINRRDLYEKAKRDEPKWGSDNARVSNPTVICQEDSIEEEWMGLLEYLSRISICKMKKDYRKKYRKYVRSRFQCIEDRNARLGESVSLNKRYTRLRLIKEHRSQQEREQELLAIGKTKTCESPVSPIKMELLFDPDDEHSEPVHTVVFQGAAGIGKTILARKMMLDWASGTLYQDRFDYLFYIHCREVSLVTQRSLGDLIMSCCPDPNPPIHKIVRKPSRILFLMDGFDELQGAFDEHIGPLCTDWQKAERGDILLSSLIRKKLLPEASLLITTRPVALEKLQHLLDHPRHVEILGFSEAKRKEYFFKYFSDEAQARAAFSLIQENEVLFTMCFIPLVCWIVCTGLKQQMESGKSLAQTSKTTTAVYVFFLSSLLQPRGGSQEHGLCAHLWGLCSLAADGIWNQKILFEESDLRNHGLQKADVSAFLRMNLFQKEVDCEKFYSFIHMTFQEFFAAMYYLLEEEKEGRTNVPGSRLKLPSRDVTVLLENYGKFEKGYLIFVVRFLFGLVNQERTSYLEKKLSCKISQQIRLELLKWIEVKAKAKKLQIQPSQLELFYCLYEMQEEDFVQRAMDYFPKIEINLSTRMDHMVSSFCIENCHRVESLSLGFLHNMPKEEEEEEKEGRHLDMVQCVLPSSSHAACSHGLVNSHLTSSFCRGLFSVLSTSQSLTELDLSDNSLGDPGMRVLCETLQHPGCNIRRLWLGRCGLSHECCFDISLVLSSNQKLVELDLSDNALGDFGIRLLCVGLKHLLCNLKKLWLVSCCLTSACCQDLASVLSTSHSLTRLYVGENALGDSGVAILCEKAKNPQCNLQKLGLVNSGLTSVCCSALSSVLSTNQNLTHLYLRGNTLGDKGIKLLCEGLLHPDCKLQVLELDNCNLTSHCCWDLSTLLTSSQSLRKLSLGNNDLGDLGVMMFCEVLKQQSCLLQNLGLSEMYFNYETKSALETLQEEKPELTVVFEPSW
For data set [3] the following is noted: healthy subjects, oral; cited from earlier work.

The text below walks through data of patent US20240358669A1, “METHODS FOR TREATING PANCREATIC CANCER” (Olatec Therapeutics, Inc., priority 2022, published 2024).

On to `Nc1ccn([C@@H]2O[C@H](CO)[C@@H](O)C2(F)F)c(=O)n1` [gemcitabine, Gemcitabine, reference compound], for which the tumor weight result in data set [1] is given as “significant reduction”.

As for `CS(=O)(=O)CCC#N` [dapansutrile, 3-methanesulfonyl-propionitrile], the tumor volume result was “reduced tumor volume” in data set [2] (p<0.0001) and “significant reduction” in data set [1]. Moreover, the tumor weight entry in data set [2] (p<0.01) is “reduced tumor weight”; in data set [1], “significant reduction”. Further, the non-immune cells proliferation result in the data set on non-immune cells is on record as “no effect”. Besides, the COX2/PGE2 result with COX2/PGE2 is on record as “significant reduction”. The “inhibition of the NLRP3 inflammasome” value on NLRP3 inflammasome is “selectively inhibit”. The “safety when orally administered” value in data set [3] is recorded as “safe”.
